Measurements as given in the OPERA property sets (Mansouri et al. 2018).

Settings: for log10 BCF / log10 biotransformation half-life (days): fish

Structure (SMILES)	melting point	boiling point	further results
CCC(=O)c1c(O)cc(O)cc1O	176 °C	–	–
NC(=O)COC(=O)c1ccccc1	121 °C	–	–
O=C(O)CO	79.5 °C	–	log10 vapour pressure (mmHg): -1.7; ready biodegradability: readily biodegradable
COc1cccc(NC(=O)N(C)C)c1	–	–	log10 Koc (L/kg): 1.72
NCCCCCCCN	28.9 °C	224 °C	–
CCCCCOC(=O)CCCCC	-47 °C	226 °C	–
O=Cc1ccccc1Cl	12.4 °C	212 °C	log10 vapour pressure (mmHg): -0.638; ready biodegradability: not readily biodegradable
COc1nc2c(c(=O)n(C)c(=O)n2C)n1C	176 °C	–	–
CCOC(=O)CCC(=O)OCC	-21 °C	218 °C	log10 vapour pressure (mmHg): -1.36
CC(C)=NN=C(C)C	-12.5 °C	133 °C	–
CCCCCCCCCCCCOC(=O)c1cc(O)c(O)c(O)c1	96.5 °C	–	–
O[C@H]1[C@H](O)[C@@H](O)[C@H](O)[C@@H](O)[C@H]1O (racemic)	237 °C	–	–
c1ccc(CN2CCOCC2)cc1	194 °C	260 °C	–
O=[N+]([O-])c1ccccc1CO	74 °C	270 °C	–
COc1ccc2c(c1O)-c1cccc3c1C(C2)N(C)CC3 (stereo not drawn)	124 °C	–	–
CC[N+](CC)(CCNC(=O)C(=O)NCC[N+](CC)(CC)Cc1ccccc1Cl)Cc1ccccc1Cl.[Cl-].[Cl-]	198 °C	–	–
CCC(C)(C#N)/N=N/C(C)(C#N)CC (stereo not drawn)	50 °C	–	–
c1ccc2c(c1)[nH]c1cnccc12	199 °C	–	–
CCCCC(CC)COC(=O)CCCCCCCC(=O)OCC(CC)CCCC (stereo not drawn)	-78 °C	–	ready biodegradability: readily biodegradable
CC(=O)O[C@H]1C[C@@H]2CC[C@@H]3[C@H](CC[C@@]4(C)[C@H]3C[C@H]([N+]3(C)CCCCC3)[C@@H]4OC(C)=O)[C@@]2(C)C[C@@H]1[N+]1(C)CCCCC1.[Br-].[Br-]	215 °C	–	–
CC(=O)c1ccc([N+](=O)[O-])cc1	81.8 °C	–	–
O=[N+]([O-])c1ccc2[nH]cnc2c1	208 °C	–	ready biodegradability: not readily biodegradable; log10 BCF: 0.4; log10 biotransformation half-life (days): -1.15
CCCCCCN1CC(C(=O)OC)CC1=O (stereo not drawn)	4 °C	–	–
S=C=Nc1ccc(Cl)cc1	46 °C	250 °C	–

Structure (SMILES)	melting point	boiling point	further results
Cc1cccc(C(=O)Cl)c1	-23 °C	220 °C	–
ClC1(Cl)C2(Cl)C3(Cl)C4(Cl)C(Cl)(Cl)C5(Cl)C3(Cl)C1(Cl)C5(Cl)C24Cl (stereo not drawn)	–	–	log10 Henry constant (atm·m³/mol): -3.09; log10 Koc (L/kg): 6; log10 vapour pressure (mmHg): -6.1; log10 BCF: 4.31; log10 biotransformation half-life (days): 1.8
C1=CCC=C1	-85 °C	41 °C	log10 vapour pressure (mmHg): 2.64
C[SiH](O[SiH](C)O[Si](C)(C)C)O[Si](C)(C)C (stereo not drawn)	–	170 °C	–
Clc1cc(Cl)c2c(Cl)ccc(Cl)c2c1	–	–	log10 Koa: 8.28
CC(C)(C)c1ccc(C(C)(C)C)cc1	79.5 °C	238 °C	–
CCCCCC(=O)CCCCC	14.5 °C	228 °C	log10 vapour pressure (mmHg): -1.3; ready biodegradability: readily biodegradable
CC(C)CCCO	–	152 °C	–
CCCCC(C)CC(C)C (stereo not drawn)	–	156 °C	–
CC1CCCc2ccccc21 (stereo not drawn)	–	221 °C	–
O=c1c2ccccc2oc2ccccc12	174 °C	351 °C	–
CCc1oc2ccccc2c1C(=O)c1cc(Br)c(O)c(Br)c1	151 °C	–	–
C/C(=C(\CCOC(=O)c1ccccc1)SS/C(CCOC(=O)c1ccccc1)=C(/C)N(C=O)Cc1cnc(C)nc1N)N(C=O)Cc1cnc(C)nc1N	146 °C	–	–
C=C(C)CCO	–	132 °C	log10 vapour pressure (mmHg): 0.551
CNc1ccc(NC)c2c1C(=O)c1ccccc1C2=O	220 °C	–	log10 vapour pressure (mmHg): -10.7
CCC1CCCCC1	-111 °C	132 °C	log10 biodegradation half-life (days): 0.301; log10 vapour pressure (mmHg): 1.11; ready biodegradability: not readily biodegradable
Nc1cc([N+](=O)[O-])ccc1O	144 °C	–	–
CNc1ccc(N)c2c1C(=O)c1ccccc1C2=O	193 °C	–	–
Clc1ccc2c(Cl)c(Cl)ccc2c1Cl	–	–	log10 Koa: 8.28
COCC(O)CO (stereo not drawn)	–	220 °C	–
CCC(CC)C(C)C(C)C (stereo not drawn)	–	162 °C	–
FC(F)=C(F)C(F)(F)F	-156 °C	-29.6 °C	log10 vapour pressure (mmHg): 3.69
CCCC(C)(O)CC(C)C (stereo not drawn)	–	171 °C	–
BrCCCCCCBr	-2.3 °C	246 °C	–

Structure (SMILES)	melting point	boiling point	further results
Cc1c(Cl)c(Cl)c(C)c(Cl)c1Cl	–	–	log10 BCF: 3.62; log10 biotransformation half-life (days): 1.12
C=Cc1ccccc1CC	-75.5 °C	187 °C	ready biodegradability: not readily biodegradable
Oc1ccccc1-c1ccccc1O	109 °C	320 °C	–
Cc1cc(C)cc([N+](=O)[O-])c1	75 °C	274 °C	–
CCOP(=O)(NC(C)C)Oc1ccc(S(C)(=O)=O)c(C)c1 (stereo not drawn)	–	–	log10 Koc (L/kg): 1.64
Cc1ccccc1N=C(N)Nc1ccccc1C	–	–	ready biodegradability: not readily biodegradable
Oc1c(Cl)c(Cl)c(Cl)c(Cl)c1Cl	174 °C	310 °C	log10 Henry constant (atm·m³/mol): -7.61; log10 Koc (L/kg): 4.3; log10 vapour pressure (mmHg): -3.96; ready biodegradability: not readily biodegradable; log10 BCF: 2.66; log10 biotransformation half-life (days): -0.2
COc1cc2nc(N3CCN(C(=O)C4CCCO4)CC3)nc(N)c2cc1OC (stereo not drawn)	273 °C	–	–
CCOC(=O)c1ccc(O)cc1	117 °C	298 °C	log10 Koc (L/kg): 2.21; ready biodegradability: readily biodegradable
CC(C)(Cl)C=O	–	90 °C	–
CC(C)(C)c1ccc(O)c(C(C)(C)C)c1	56.5 °C	264 °C	log10 vapour pressure (mmHg): -2.32; ready biodegradability: not readily biodegradable; log10 BCF: 2.4; log10 biotransformation half-life (days): -0.37
NC(=O)c1ccccc1[N+](=O)[O-]	177 °C	317 °C	log10 Koc (L/kg): 1.45
CC(C)c1ccc(OP(=O)(Oc2ccc(C(C)C)cc2)Oc2ccc(C(C)C)cc2)cc1	–	–	ready biodegradability: not readily biodegradable
O=Cc1c(Cl)cccc1Cl	71.5 °C	–	ready biodegradability: not readily biodegradable
CCOC(C)(C)CC	–	102 °C	log10 vapour pressure (mmHg): 1.7
CC(=O)OCC(=O)[C@@]1(O)CC[C@H]2[C@@H]3CCC4=CC(=O)CC[C@]4(C)[C@H]3C(=O)C[C@@]21C	222 °C	–	–
O=C(O)c1c[nH]c2ccccc12	206 °C	–	–
CN(N=O)c1ccc(N=O)cc1	101 °C	–	–
CC(=O)Nc1nc(=O)c2ncn(COCCOC(C)=O)c2[nH]1	204 °C	–	–
CCOC(=O)CSCCC1NC(C(=O)O)CS1 (stereo not drawn)	142 °C	–	–
Nc1cc(Cl)c(Cl)cc1Cl	96.5 °C	270 °C	log10 BCF: 2.33; log10 biotransformation half-life (days): -0.01
O=Cc1ccccc1[N+](=O)[O-]	43.5 °C	–	log10 vapour pressure (mmHg): -1.75
CCCC(=O)OCC(C)C	–	157 °C	–
CC(C)=CCO	–	140 °C	–

Structure (SMILES)	melting point	boiling point	further results
COc1ccc(-c2ccccc2)cc1NNC(=O)OC(C)C	122 °C	–	–
COC(=O)c1ccc(C)cc1	33.2 °C	220 °C	–
COC(=O)C1CC(=O)N(C)C1 (stereo not drawn)	15 °C	–	–
C1OCC2(CO1)COCOC2	48.3 °C	–	–
c1ccc2c(c1)Cc1ccccc1O2	100 °C	311 °C	–
CCOC(O)C(Cl)(Cl)Cl (stereo not drawn)	56.5 °C	116 °C	–
C(=N\C(/N=C/c1ccco1)c1ccco1)/c1ccco1	117 °C	–	–
Cc1c(F)c(F)cc(F)c1F	–	126 °C	–
CC(=O)COc1ccccc1	–	230 °C	–
O=c1[nH]c2ccccc2o1	138 °C	335 °C	–
COC(Cc1ccccc1)OC	–	220 °C	–
CCCCS(=O)CCCC	32.6 °C	–	–
Clc1ccc2ccccc2c1Cl	36 °C	296 °C	log10 Koa: 6.89; log10 vapour pressure (mmHg): -2.7
Nc1nc[nH]n1	159 °C	–	log10 Koc (L/kg): 1.25; log10 vapour pressure (mmHg): -6.36; ready biodegradability: not readily biodegradable; log10 BCF: 0.49
Nc1ccc2ccc3cccc4ccc1c2c34	116 °C	–	–
O=C(O)CCCc1ccc(N(CCCl)CCCl)cc1	65 °C	–	–
CCCCCCCCCCCCCOC(=O)c1ccccc1C(=O)OCCCCCCCCCCCCC	–	–	ready biodegradability: not readily biodegradable
ClCc1ccc2ccccc2c1	48.5 °C	–	–
FC(F)(Cl)CBr	-76 °C	68.4 °C	–
COc1cc(OC)c(C(=O)O)cc1OC	145 °C	300 °C	–
Ic1cccs1	-40 °C	181 °C	log10 vapour pressure (mmHg): 0.906
CCN(CC)CCO	–	163 °C	log10 vapour pressure (mmHg): 0.146; ready biodegradability: not readily biodegradable
O=C(O)C(F)Cl (stereo not drawn)	–	162 °C	–
CN(C)C1CCCCC1	–	160 °C	log10 Henry constant (atm·m³/mol): -4.63

Structure (SMILES)	melting point	boiling point	further results
CC(C)CC1CCCC1	-115 °C	148 °C	–
[O-][N+](=Nc1ccccc1)c1ccccc1	36 °C	–	log10 Koc (L/kg): 3.5
Cc1c(COC(=O)[C@@H]2[C@H](/C=C(\Cl)C(F)(F)F)C2(C)C)cccc1-c1ccccc1 (racemic)	69 °C	–	log10 Koc (L/kg): 5.35; log10 vapour pressure (mmHg): -6.74
O=C(c1ccccc1)c1ccc(Cl)c([N+](=O)[O-])c1	105 °C	–	–
Clc1cccc(Oc2ccccc2)c1	–	–	log10 vapour pressure (mmHg): -2.42
OCCNCCNCCO	97.5 °C	–	–
O=S(=O)(O)CCNC1CCCCC1	320 °C	–	–
O=C(O)/C=C/C=C/C(=O)O	301 °C	–	–
CC(C)CC(O)CC(C)C	–	174 °C	log10 vapour pressure (mmHg): -0.519
c1ccc(-c2cnc(-c3ccc(-c4ncc(-c5ccccc5)o4)cc3)o2)cc1	245 °C	–	–
NS(=O)(=O)c1cc(C(=O)c2ccc(O)cc2)cs1	192 °C	–	–
CCc1nc(C)c[nH]1	50.5 °C	294 °C	–
C=COC(=O)CCC	117 °C	–	–
CC(=O)OCC(=O)[C@H]1CC[C@H]2[C@@H]3CC=C4C[C@@H](O)CC[C@]4(C)[C@H]3CC[C@]12C	184 °C	–	–
BrCCBr	9.9 °C	132 °C	log10 Henry constant (atm·m³/mol): -3.19; log10 Koc (L/kg): 1.71; log10 vapour pressure (mmHg): 1.05; ready biodegradability: not readily biodegradable; log10 BCF: 1.18; log10 biotransformation half-life (days): -0.83
CC1=NCCO1	–	111 °C	–
O=C(O)C(Cl)Cl	13.5 °C	194 °C	log10 Henry constant (atm·m³/mol): -8.08; log10 vapour pressure (mmHg): -0.748; ready biodegradability: readily biodegradable
CCC(=O)C(C)C	–	114 °C	log10 vapour pressure (mmHg): 1.26
C=CC(=O)OCCO	–	191 °C	log10 vapour pressure (mmHg): -1.28; ready biodegradability: readily biodegradable
c1ccc2nc(-c3ccc4ccccc4n3)ccc2c1	194 °C	–	log10 Koc (L/kg): 4.02
Clc1ccc(Cl)c(I)c1	22 °C	253 °C	–
Cc1ccccc1NC(=N)NC(=N)N	144 °C	–	–
CC(C)=C(C)C(C)C	-113 °C	116 °C	log10 vapour pressure (mmHg): 1.35
COc1ccc(CN)cc1	–	236 °C	–
